The values that follow come from US6713449B1, “E2F activity inhibitory compounds” (Kyowa Hakko Kogyo Co., Ltd., priority 1996, dated 2004).

Assay [1] deals with T1, GST-E2F-1 and GST-DP-1 binding to 32P-labeled E2F probe (Homo sapiens, UniProt Q01094+Q14186).
T1 construct: a part of human E2F-1 (101-st to 227-th amino acid residues from the N terminus) and GST; a part of the human DP-1 (84-th to 241-th amino acid residues from the N terminus) with GST; made in house; host or cells: Escherichia coli XL1-blue
Nature of the assay: Assay of E2F-DNA binding-inhibiting activity by gel shift assay. As to conditions: 30° C. 30 minutes. As for the experimental part: Assay of E2F-DNA Binding-inhibiting Activity by Gel Shift Assay (1-1) Expression of a Fusion Protein of E2F-1 and DP-1 in Escherichia Coli
So as to assay the activity to inhibit E2F-DNA binding, a fusion protein of glutathione-S-transferase (abbreviated as GST hereinbelow) with the genes of human E2F-1 [Cell, 70, 337 (1992); Cell, 70, 351 (1992)] and human DP-1 [Genes Dev., 7, 1850 (1993)] was prepared.
(1-2) Gel Shift Experiments by Using GST-E2F-1 and GST-DP-1
The following two oligonucleotides including the E2F binding sequence, which are complementary sequences to each other;
were added individually at a concentration of 10 μM into a solution comprising 10 mM MgCl2, 5 mM DTT and 50 mM Tris-HCl(pH 7.5), for treatment at 75° C. for 10 minutes, and the resulting solutions were left to stand at ambient temperature while gradually lowering the temperature for annealing. The resulting double-stranded DNA solution (10 μl) was kept in a reaction solution (30 μL) [50 mM Tris-HCl buffer(pH 7.5) containing 10 mM MgCl2, 5 mM dithiothreitol (DTT) 10 units of T4 polynucleotide kinase (manufactured by TaKaRa), 0.2 mCi [γ-^32P]ATP (7,000 Ci/mmol ATP, manufactured by Amersham Co.)] at 37° C. for 60 minutes, to label the 5′ terminus. By adding 0.5 M EDTA (2 μl) to the reaction solution, the reaction was terminated, and thereafter, unreactive [γ-^32P]ATP was removed by using a NickColumn G-50 (manufactured by Pharmacia Co.), to recover E2F probe. Into 20 mM HEPES buffer(pH 7.4)(20 μl) containing 40 mM KCl, 1 mM MgCl2, 0.1 mM EDTA, 0.1% Nonidet P-40, and 1 mM DTT were added 0.1 pmol of ^32P-labeled E2F probe, 100 ng of GST-E2F-1, 100 ng of GST-DP-1, 2 μg of calf thymus DNA and 0 to a 100 μM test compound, for reaction at 30° C. for 30 minutes. After the reaction, the reaction solution was electrophoresed by using 0.5×TBE [2.5 mM Tris-borate buffer, pH 8.3, 0.1 mM EDTA] as an electrophoresis buffer in 4% polyacrylamide gel. GST-E2F-1 and GST-DP-1 proteins were bound to the labeled E2F probe, so that the mobility thereof was reduced. Accordingly, the proteins were detected as upper bands. After electrophoresis, the gel was dried to assay the radioactivity in bands shifting upward, by using an image analyzer Type BAS2000 (manufactured by Fuji Film Co.). The radioactivity in each lane was assayed, to calculate the inhibition ratio, on the basis of the radioactivity of a sample with no test compound contained in the reaction system, according to the following equation.
A: radioactivity in a band shifted in the absence of any test compound
B: radioactivity in a band shifted in the presence of a test compound.
A general note: Mobility shift assays separate free from complexed probe on a gel.

Assay [2] relates to human osteosarcoma-derived cell line Saos-2. In words: Assay of growth inhibiting activity on Saos-2 cell (test compound introduced by electric pulse). Type of assay: cell-based. As to conditions: 100 μM, 40 hours culture, viable cell number.
Experimental: Assay of Growth Inhibiting Activity on Saos-2 cell
1×10^6 cells of a human osteosarcoma-derived cell line Saos-2 (ATCC HTB85) cultured in an RPMI 1640 culture medium containing 10% fetal calf serum (manufactured by Nissui Co.; referred to as medium A hereinbelow) in the presence of 5% CO2 at 37° C. were suspended in 50 μl of K-PBS buffer [137 mM KCl, 2.7 mM NaCl, 8.1 mM Na2HPO4, 1.5 mM KH2PO4, and 4 mM MgCl2], followed by addition of a test compound appropriately diluted with K-PBS to a final concentration of 100 μM. The suspension was transferred on a 0.2-cm width cuvette (manufactured by BIO-RAD Laboratories) for loading an electric pulse (conditions: an electric voltage=3 kV/cm, a pulse width=100 μ seconds, a pulse interval=one second, a pulse number=two) by using a Shimadzu cell fusion system SSH-1 [manufactured by Shimadzu Corporation]. After leaving the cuvette to stand for 10 minutes, the cells were recovered and suspended in 3 ml of the medium A, for inoculation on a cell culture dish of a 60-mm diameter(manufactured by Iwaki Glass Co.). […] Based on the cell number with no test compound under load of an electric pulse, the inhibition ratio was calculated by the following equation. […]
For assay [3], the system named is E2F responsive transcription (human cdc2 promoter-luciferase reporter pcdc21uc2). In words: Assay of activity suppressing E2F responsive transcription (1): human cdc2 promoter luciferase reporter in Saos-2. Type of assay: cell-based. As to conditions: 100 μM, electroporation, 40 hours, luciferase activity corrected with protein concentration.
Experimental: Assay of Activity Suppressing E2F Responsive Transcription (1)
The promoter sequence of human cdc2 gene [EMBO J., 11, 1797 (1992)], which has been reported to have an endogenous E2F responsive sequence and to effect an E2F dependent transcription, was bound to the upstream of the firefly luciferase gene, which was designated as reporter gene.
Two micrograms (2 μg) of the plasmid pcdc21uc2 thus prepared were introduced, together with a test compound (100 μM), into 1×10^6 cells of Saos-2 by electroporation, in the same manner as in the Test Example 2. As in the Test Example 2, the resulting cells were inoculated into a cell culture dish of a 60-mm diameter for culturing in the presence of 5% CO2 at 37° C. for 40 hours, and thereafter, the cells were peeled off and recovered by centrifugation. […] The luciferase activity was assayed as follows; 300 μl of a substrate solution [25 mM glycylglycine buffer(pH 7.8), 15 mM MgSO4, 5 mM ATP, and 0.33 mM luciferin] was automatically injected into a luminometer LB953 (manufactured by Beltold Co.), to assay the luminescence for 10 seconds, which was defined as luciferase activity. […] Based on the luciferase activity (after correction with protein concentration) of a sample with no test compound contained in the reaction system, the inhibition ratio was calculated by the following equation. […]
The test system of assay [4] is E2F dependent transcription (luciferase reporter cell strain E2F-1/Saos-2-1). In words: Assay of activity suppressing E2F responsive transcription (2): reporter cell strain E2F-1/Saos-2-1, Lipofect AMINE. Type of assay: cell-based, human. As to conditions: luciferase activity corrected with protein concentration. From the text:
Assay of Activity Suppressing E2F Responsive Transcription (2)
Into the XhoI- and HindIII sites of luciferase reporter vector pluc2 with neomycin (G418) resistant gene [Eur. J. Haematol., 52, 73 (1994)] were inserted an SphI-HindIII fragment composed of the 200 base pairs in the core promoter region of the SV40 initial gene 128-0/5243-5171, base number according to “DNA Tumor Viruses, Molecular Biology of Tumor Viruses, 2nd Ed., Part 2 Revised, Edited by J. Tooze, Cold Spring Harbor Laboratory Press, 1982” and a fragment produced by annealing the following two synthetic oligonucleotides;
and then inserting the annealed product into the XhoI and Asp718 sites of the constructed luciferase vector pSE01uc2, reporter plasmid pE2FII-1luc2 was constructed.
By the following method, the plasmid was introduced into a human osteosarcoma-derived cell strain Saos-2 (ATCC HTB85), and the resulting cell was defined as E2F responsive reporter cell. 2×10^6 cells of the Saos-2 cultured in the presence of 5% CO2 in the medium A at 37° C. were suspended in K-PBS buffer (50 μl) [137 mM KCl, 2.7 mM NaCl, 8.1 mM Na2HPO4, 1.5 mM KH2PO4, 4 mM MgCl2], followed by addition of 1 μg/μl plasmid pE2FII-1 luc2 (4 μg) prepared above. […]

Where a SMILES comes first, the peptide text is derived from it. The star is where a group is joined. Lauroyl = CCCCCCCCCCCC(=O)*

T1 sequence (Q01094 101-227): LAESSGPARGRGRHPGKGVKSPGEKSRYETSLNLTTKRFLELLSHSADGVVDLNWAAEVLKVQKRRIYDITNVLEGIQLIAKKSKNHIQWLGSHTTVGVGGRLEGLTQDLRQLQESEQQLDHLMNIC
T1 sequence (Q14186 84-241): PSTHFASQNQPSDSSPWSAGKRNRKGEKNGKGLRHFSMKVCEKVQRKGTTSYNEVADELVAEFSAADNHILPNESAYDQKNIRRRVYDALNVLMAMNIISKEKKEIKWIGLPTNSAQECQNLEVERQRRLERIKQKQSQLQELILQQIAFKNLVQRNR

As to “Ac-NESAYDQKNIRRRVYDALNVLMAMNIIS-NH2 [Compound Ib-1]”, the “Inhibition ratio (%)” value in assay [1] (1 μM test compound) turned out to be 13.7%; in assay [1] (10 μM test compound), 52.9%; in assay [1] (100 μM test compound), 87.6%; in assay [2], 73%; in assay [3], 83%.

Turning to `CCCCCCCCCCCC(=O)N[C@@H](CC(N)=O)C(=O)N[C@@H](CCC(=O)O)C(=O)N[C@@H](CO)C(=O)N[C@@H](C)C(=O)N[C@@H](Cc1ccc(O)cc1)C(=O)N[C@@H](CC(=O)O)C(=O)N[C@@H](CCC(N)=O)C(=O)N[C@@H](CCCCN)C(=O)N[C@@H](CC(N)=O)C(=O)N[C@H](C(=O)N[C@@H](CCCNC(=N)N)C(=O)N[C@@H](CCCNC(=N)N)C(=O)N[C@@H](CCCNC(=N)N)C(=O)N[C@H](C(=O)N[C@@H](Cc1ccc(O)cc1)C(=O)N[C@@H](CC(=O)O)C(=O)N[C@@H](C)C(=O)N[C@@H](CC(C)C)C(=O)N[C@@H](CC(N)=O)C(=O)N[C@H](C(=O)N[C@@H](CC(C)C)C(=O)N[C@@H](CCSC)C(=O)N[C@@H](C)C(=O)N[C@@H](CCSC)C(=O)N[C@@H](CC(N)=O)C(=O)N[C@H](C(=O)N[C@H](C(=O)N[C@@H](CO)C(N)=O)[C@@H](C)CC)[C@@H](C)CC)C(C)C)C(C)C)[C@@H](C)CC` [Compound Ib-3] (Lauroyl-NESAYDQKNIRRRVYDALNVLMAMNIIS-NH2), the “Inhibition ratio (%)” value turned out to be 17.9% in assay [1] (25 μM test compound) and 49.5% in assay [1] (100 μM test compound).

Regarding “Ac-Ala-Arg-Gly-Arg-Gly-Arg-His-Pro-Gly-Lys-Gly-Val-Lys-Ser-Pro-Gly-Glu-Arg-Ser-Arg-Tyr-Glu-Thr-Ser-Leu-Asn-Leu-Thr-Thr-Lys-Arg-Phe-Leu-Glu-Leu-NH2 (Ac-ARGRGRHPGKGVKSPGERSRYETSLNLTTKRFLEL-NH2) [Compound Ic-1]”, the “Inhibition ratio (%)” value amounted to 17% in assay [4] (1 μM) and 28% in assay [4] (10 μM).
